Source: ChEMBL document CHEMBL1201862, “PubChem BioAssay data set” (2004)
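Protocol summary: plate cells (96-well), add compound at 5 concentrations, incubate 48 h, interpolate endpoints linearly. GI50: concentration for 50% inhibition of growth.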 Active and inactive are the calls of the source. Cut-off read from the data, not from the text of the source: active = GI50 up to about 1.1 µM and inactive = higher.

Legend:
Test in all cases: growth of human tumour cells (NCI), 48 h
786-0 = tested on: 786-0
A549 = tested on: A549
ACHN = tested on: ACHN
CCRF-CEM = tested on: CCRF-CEM
COLO 205 = tested on: COLO 205
DU-145 = tested on: DU-145
EKVX = tested on: EKVX
HCT-116 = tested on: HCT-116
HCT-15 = tested on: HCT-15
HL-60 = tested on: HL-60
HOP-62 = tested on: HOP-62
HT-29 = tested on: HT-29
Hs-578T = tested on: Hs-578T
IGROV-1 = tested on: IGROV-1
K562 = tested on: K562
KM12 = tested on: KM12
LOX IMVI = tested on: LOX IMVI
M14 = tested on: M14
MCF7 = tested on: MCF7
MDA-MB-231 = tested on: MDA-MB-231
MDA-MB-435 = tested on: MDA-MB-435
MOLT-4 = tested on: MOLT-4
Malme-3M = tested on: Malme-3M
NCI-H226 = tested on: NCI-H226
NCI-H23 = tested on: NCI-H23
NCI-H460 = tested on: NCI-H460
NCI-H522 = tested on: NCI-H522
NCI/ADR-RES = tested on: NCI/ADR-RES
OVCAR-3 = tested on: OVCAR-3
OVCAR-4 = tested on: OVCAR-4
OVCAR-5 = tested on: OVCAR-5
OVCAR-8 = tested on: OVCAR-8
PC-3 = tested on: PC-3
RPMI-8226 = tested on: RPMI-8226
RXF 393 = tested on: RXF 393
SF-268 = tested on: SF-268
SF-295 = tested on: SF-295
SF-539 = tested on: SF-539
SK-MEL-28 = tested on: SK-MEL-28
SK-MEL-2 = tested on: SK-MEL-2
SK-MEL-5 = tested on: SK-MEL-5
SK-OV-3 = tested on: SK-OV-3
SN12C = tested on: SN12C
SNB-19 = tested on: SNB-19
SNB-75 = tested on: SNB-75
SR = tested on: SR
SW-620 = tested on: SW-620
T47D = tested on: T47D
TK-10 = tested on: TK-10
U-251 = tested on: U-251
UACC-257 = tested on: UACC-257
UACC-62 = tested on: UACC-62
UO-31 = tested on: UO-31

## NCCSC1(O)C(=O)c2ccccc2-c2ccccc21 (stereo not drawn)
786-0
  GI50: 1630 nM (inactive)
A549
  GI50: 719 nM (active)
ACHN
  GI50: 1050 nM (active)
CCRF-CEM
  GI50: 158 nM (active)
COLO 205
  GI50: 1850 nM (inactive)
DU-145
  GI50: 1060 nM (active)
EKVX
  GI50: 1660 nM (inactive)
HCT-116
  GI50: 176 nM (active)
HCT-15
  GI50: 1490 nM
HL-60
  GI50: 1090 nM (active)
HOP-62
  GI50: 1530 nM (inactive)
HT-29
  GI50: 1210 nM (inactive)
Hs-578T
  GI50: 1410 nM (inactive)
IGROV-1
  GI50: 1800 nM (inactive)
K562
  GI50: 382 nM (active)
KM12
  GI50: 1630 nM (inactive)
LOX IMVI
  GI50: 256 nM (active)
M14
  GI50: 1020 nM (active)
MCF7
  GI50: 1830 nM (inactive)
MDA-MB-231
  GI50: 483 nM (active)
MDA-MB-435
  GI50: < 10 nM (active)
MOLT-4
  GI50: 181 nM (active)
Malme-3M
  GI50: 1000 nM (active)
NCI-H226
  GI50: 1330 nM (inactive)
NCI-H23
  GI50: 143 nM (active)
NCI-H460
  GI50: 1780 nM (inactive)
NCI-H522
  GI50: 1550 nM (inactive)
NCI/ADR-RES
  GI50: 272 nM (active)
OVCAR-3
  GI50: < 10 nM (active)
OVCAR-4
  GI50: 207 nM (active)
OVCAR-5
  GI50: 1530 nM (inactive)
OVCAR-8
  GI50: 262 nM (active)
PC-3
  GI50: 1250 nM (inactive)
RPMI-8226
  GI50: 34.8 nM (active)
RXF 393
  GI50: 1640 nM (inactive)
SF-268
  GI50: 1500 nM (inactive)
SF-295
  GI50: < 10 nM (active)
SF-539
  GI50: 1150 nM (inactive)
SK-MEL-28
  GI50: 1210 nM (inactive)
SK-MEL-2
  GI50: 1610 nM (inactive)
SK-MEL-5
  GI50: 265 nM (active)
SK-OV-3
  GI50: 1630 nM (inactive)
SN12C
  GI50: 1360 nM (inactive)
SNB-19
  GI50: 1530 nM (inactive)
SNB-75
  GI50: 553 nM (active)
SR
  GI50: 47.2 nM (active)
SW-620
  GI50: 1520 nM (inactive)
T47D
  GI50: 2100 nM (inactive)
TK-10
  GI50: 1730 nM (inactive)
U-251
  GI50: 713 nM (active)
UACC-257
  GI50: 435 nM (active)
UACC-62
  GI50: 1640 nM (inactive)
UO-31
  GI50: 1470 nM (inactive)
